Where two headings read alike, the source gives them in different places. Peptide text beside a SMILES is read from it.
What was measured:
CRF2R = target: T1, CRF2R (Homo sapiens, UniProt Q13324); test: CRF2R agonist activity (EC50 and Emax), called comparative CRF binding; type: cell-based; conditions: CRF2R
T1 sequence (Q13324 1-411): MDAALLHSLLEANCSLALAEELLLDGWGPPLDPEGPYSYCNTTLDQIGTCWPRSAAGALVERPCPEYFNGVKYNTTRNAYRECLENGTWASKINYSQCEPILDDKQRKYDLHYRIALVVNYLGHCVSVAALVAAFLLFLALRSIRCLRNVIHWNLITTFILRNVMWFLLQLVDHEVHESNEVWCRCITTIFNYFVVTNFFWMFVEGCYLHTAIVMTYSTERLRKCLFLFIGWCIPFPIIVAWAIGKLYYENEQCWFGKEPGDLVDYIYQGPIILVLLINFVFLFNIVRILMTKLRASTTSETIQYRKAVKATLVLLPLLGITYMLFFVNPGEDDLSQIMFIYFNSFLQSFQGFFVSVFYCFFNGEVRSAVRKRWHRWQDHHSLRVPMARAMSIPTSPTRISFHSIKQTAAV
Text: (§1) The pharmacological activity and selectivity of the peptides of present invention can be determined using published test procedures. See, e.g, U.S. patent application Ser. No. 09/799,978. Because CRF2R and CRF1R are homologous proteins, it is expected that a certain proportion of agonists for CRF2R will also function as agonists of CRF1R. As discussed above, activation of CRF1R induces activation of the HPA axis since increased corticosteroid production leads to skeletal muscle atrophy. In most cases in which an increase in muscle mass or function is desired, it is not desirable to activate the HPA axis.
(§2) Because it is desirable to discriminate binding between CRF2R, as compared with CRF1R, the assays described above may be conducted using a cell, or membrane from a cell, which expresses only CRF2R or the assays can be conducted with a recombinant source of CRF2R. Cells expressing both forms of CRFR may be modified using homologous recombination to inactivate or otherwise disable the CRF1R gene. Alternatively, if the source of CRFR contains more than one CRFR type, the background signal produced by the receptor which is not of interest must be subtracted from the signal obtained in the assay. […] Known antagonists of CRFRs include, but are not limited to, antalarmin (CRF1R selective), antisauvagine-30 (CRF2R selective) and astressin (nonselective for CRF1R/CRF2R).
(§3) Cell-based assays include the steps of contacting cells which express CRF1R or CRF2R with a peptide of the present invention or control and measuring activation of the CRFR by measuring the expression or activity of components of the CRFR signal transduction pathways.
(§4) For example, after contact with a peptide of the present invention, lysates of the cells can be prepared and assayed for induction of cAMP. cAMP is induced in response to Gαs activation. Because Gαs is activated by receptors other than CRFR and because a test peptide may be exerting its effect through CRFRs or by another mechanism, two control comparisons are relevant for determining whether the peptide increases levels of cAMP via activation of a CRFR. One control compares the cAMP level of cells contacted with the peptide and the cAMP level of cells contacted with a control compound (i.e., the vehicle in which the peptide is dissolved).
(§5) In one example, cAMP induction is measured with the use of DNA constructs containing the cAMP responsive element linked to any of a variety of reporter genes can be introduced into cells expressing CRFRs. Such reporter genes include, but are not limited to, chloramphenicol acetyltransferase (CAT), luciferase, glucuronide synthetase, growth hormone, fluorescent proteins (e.g., Green Fluorescent Protein), or alkaline phosphatase. Following exposure of the cells to the peptide, the level of reporter gene expression can be quantitated to determine the peptide's ability to increase cAMP levels and thus determine the peptide's ability to activate the CRFR.
(§6) In addition to using cells expressing full length CRFRs, cells can be engineered which express CRFRs containing the ligand binding domain of the receptor coupled to, or physically modified to contain, reporter elements or to interact with signaling proteins. For example, a wild type CRFR or CRFR fragment can be fused to a G-protein resulting in activation of the fused G-protein upon agonist binding to the CRFR portion of the fusion protein. […] In addition, alternative pathways for induction of the CRE reporter could be eliminated to reduce basal levels.

CRF1R = target: T2, CRF1R (Homo sapiens, UniProt P34998); test: CRF1R agonist activity (EC50 and Emax), called comparative CRF binding; type: cell-based; conditions: CRF1R
T2 sequence (P34998 24-415): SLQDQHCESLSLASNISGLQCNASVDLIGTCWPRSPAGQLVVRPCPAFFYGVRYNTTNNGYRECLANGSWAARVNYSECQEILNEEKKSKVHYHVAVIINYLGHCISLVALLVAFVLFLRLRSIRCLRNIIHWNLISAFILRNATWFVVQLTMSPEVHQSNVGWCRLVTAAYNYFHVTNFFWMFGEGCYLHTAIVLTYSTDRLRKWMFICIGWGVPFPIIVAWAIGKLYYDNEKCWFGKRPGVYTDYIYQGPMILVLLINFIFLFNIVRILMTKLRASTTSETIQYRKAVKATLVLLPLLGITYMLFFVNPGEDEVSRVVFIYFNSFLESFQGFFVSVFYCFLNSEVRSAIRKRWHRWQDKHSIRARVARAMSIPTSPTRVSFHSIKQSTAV
Text: as §1, §2, §3, §4, §5, §6

| SMILES | EC50 (CRF2R; CRF2R EC50 (nM)) [nM] | EC50 (CRF1R; CRF1R EC50 (nM)) [nM] | EC50 (CRF2R; read-out: CRF2R EC50) [nM] | EC50 (CRF1R; read-out: CRF1R EC50) [nM] |
| --- | --- | --- | --- | --- |
| CC[C@H](C)[C@H](N)C(=O)N[C@H](C(=O)N[C@@H](CC(C)C)C(=O)N[C@@H](CO)C(=O)N[C@@H](CC(C)C)C(=O)N[C@@H](CC(=O)O)C(=O)N[C@H](C(=O)N1CCC[C@H]1C(=O)N[C@H](C(=O)NCC(=O)N[C@@H](CC(C)C)C(=O)N[C@@H](CC(C)C)C(=O)N[C@@H](CCC(N)=O)C(=O)N[C@H](C(=O)N[C@@H](CC(C)C)C(=O)N[C@@H](CC(C)C)C(=O)N[C@@H](CCC(=O)O)C(=O)N[C@@H](CCC(N)=O)C(=O)N[C@@H](C)C(=O)N[C@@H](C)C(=O)N[C@@H](C)C(=O)N[C@@H](C)C(=O)N[C@@H](CCCNC(=N)N)C(=O)N[C@@H](CCC(=O)O)C(=O)N[C@@H](CCC(N)=O)C(=O)N[C@@H](C)C(=O)N[C@H](C(=O)N[C@H](C(=O)N[C@@H](CC(N)=O)C(=O)N[C@@H](C)C(=O)N[C@@H](CCCNC(=N)N)C(=O)N[C@H](C(=O)N[C@@H](CC(C)C)C(=O)N[C@@H](C)C(=O)N[C@@H](CCCNC(=N)N)C(=O)N[C@H](C(N)=O)C(C)C)[C@@H](C)CC)[C@@H](C)O)[C@@H](C)O)[C@@H](C)CC)[C@@H](C)CC)C(C)C)C(C)C [compound 134] (H-IVLSLDVPIGLLQILLEQAAAAREQATTNARILARV-NH2) | > 100 | > 100 |  |  |
| CC[C@H](C)[C@H](N)C(=O)N[C@H](C(=O)N[C@@H](CC(C)C)C(=O)N[C@@H](CO)C(=O)N[C@@H](CC(C)C)C(=O)N[C@@H](CC(=O)O)C(=O)N[C@H](C(=O)N1CCC[C@H]1C(=O)N[C@H](C(=O)NCC(=O)N[C@@H](CC(C)C)C(=O)N[C@@H](CC(C)C)C(=O)N[C@@H](CCC(N)=O)C(=O)N[C@H](C(=O)N[C@@H](CC(C)C)C(=O)N[C@@H](CC(C)C)C(=O)N[C@@H](CCC(=O)O)C(=O)N[C@@H](CCC(N)=O)C(=O)N[C@@H](C)C(=O)N[C@@H](C)C(=O)N[C@@H](CCCNC(=N)N)C(=O)N[C@@H](C)C(=O)N[C@@H](C)C(=O)N[C@@H](CCCNC(=N)N)C(=O)N[C@@H](CCC(=O)O)C(=O)N[C@@H](CCC(N)=O)C(=O)N[C@@H](C)C(=O)N[C@H](C(=O)N[C@H](C(=O)N[C@@H](CC(N)=O)C(=O)N[C@@H](C)C(=O)N[C@@H](CCCNC(=N)N)C(=O)N[C@H](C(=O)N[C@@H](CC(C)C)C(=O)N[C@@H](C)C(=O)N[C@@H](CCCNC(=N)N)C(=O)N[C@H](C(N)=O)C(C)C)[C@@H](C)CC)[C@@H](C)O)[C@@H](C)O)[C@@H](C)CC)[C@@H](C)CC)C(C)C)C(C)C [compound 135] (H-IVLSLDVPIGLLQILLEQAARAAREQATTNARILARV-NH2) |  |  | > 100 | > 100 |
| CC[C@H](C)[C@H](N)C(=O)N[C@H](C(=O)N[C@@H](CC(C)C)C(=O)N[C@@H](CO)C(=O)N[C@@H](CC(C)C)C(=O)N[C@@H](CC(=O)O)C(=O)N[C@H](C(=O)N1CCC[C@H]1C(=O)N[C@H](C(=O)NCC(=O)N[C@@H](CC(C)C)C(=O)N[C@@H](CC(C)C)C(=O)N[C@@H](CCC(N)=O)C(=O)N[C@H](C(=O)N[C@@H](CC(C)C)C(=O)N[C@@H](CC(C)C)C(=O)N[C@@H](CCC(=O)O)C(=O)N[C@@H](CCC(N)=O)C(=O)N[C@@H](C)C(=O)N[C@@H](CCCNC(=N)N)C(=O)N[C@@H](C)C(=O)N[C@@H](C)C(=O)N[C@@H](C)C(=O)N[C@@H](CCCNC(=N)N)C(=O)N[C@@H](CCC(=O)O)C(=O)N[C@@H](CCC(N)=O)C(=O)N[C@@H](C)C(=O)N[C@H](C(=O)N[C@H](C(=O)N[C@@H](CC(N)=O)C(=O)N[C@@H](C)C(=O)N[C@@H](CCCNC(=N)N)C(=O)N[C@H](C(=O)N[C@@H](CC(C)C)C(=O)N[C@@H](C)C(=O)N[C@@H](CCCNC(=N)N)C(=O)N[C@H](C(N)=O)C(C)C)[C@@H](C)CC)[C@@H](C)O)[C@@H](C)O)[C@@H](C)CC)[C@@H](C)CC)C(C)C)C(C)C [compound 141] (H-IVLSLDVPIGLLQILLEQARAAAREQATTNARILARV-NH2) |  |  | > 100 | > 100 |
| CC[C@H](C)[C@H](N)C(=O)N[C@H](C(=O)N[C@@H](CC(C)C)C(=O)N[C@@H](CO)C(=O)N[C@@H](CC(C)C)C(=O)N[C@@H](CC(=O)O)C(=O)N[C@H](C(=O)N1CCC[C@H]1C(=O)N[C@H](C(=O)NCC(=O)N[C@@H](CC(C)C)C(=O)N[C@@H](CC(C)C)C(=O)N[C@@H](CCC(N)=O)C(=O)N[C@H](C(=O)N[C@@H](CC(C)C)C(=O)N[C@@H](CC(C)C)C(=O)N[C@@H](CCC(=O)O)C(=O)N[C@H](C(=O)N[C@@H](CCC(=O)O)C(=O)N[C@@H](CCCCN)C(=O)N[C@@H](CCC(N)=O)C(=O)N[C@@H](CCC(=O)O)C(=O)N[C@@H](CCCCN)C(=O)N[C@@H](CCC(=O)O)C(=O)N[C@@H](CCCCN)C(=O)N[C@@H](CCC(N)=O)C(=O)N[C@@H](CCC(N)=O)C(=O)N[C@@H](C)C(=O)N[C@@H](C)C(=O)N[C@@H](CC(N)=O)C(=O)N[C@@H](CC(N)=O)C(=O)N[C@@H](CCCNC(=N)N)C(=O)N[C@@H](CC(C)C)C(=O)N[C@@H](CC(C)C)C(=O)N[C@@H](CC(C)C)C(=O)N[C@@H](CC(=O)O)C(=O)N[C@H](C(=O)N[C@H](C(N)=O)[C@@H](C)CC)[C@@H](C)O)[C@@H](C)CC)[C@@H](C)CC)[C@@H](C)CC)C(C)C)C(C)C [compound 158] (H-IVLSLDVPIGLLQILLEIEKQEKEKQQAANNRLLLDTI-NH2) | 6.37 | > 100 |  |  |
| CC[C@H](C)[C@H](N)C(=O)N[C@H](C(=O)N[C@@H](CC(C)C)C(=O)N[C@@H](CO)C(=O)N[C@@H](CC(C)C)C(=O)N[C@@H](CC(=O)O)C(=O)N[C@H](C(=O)N1CCC[C@H]1C(=O)N[C@H](C(=O)NCC(=O)N[C@@H](CC(C)C)C(=O)N[C@@H](CC(C)C)C(=O)N[C@@H](CCC(N)=O)C(=O)N[C@@H](CCC(=O)O)C(=O)N[C@H](C(=O)N[C@@H](CC(C)C)C(=O)N[C@@H](CCC(=O)O)C(=O)N[C@@H](CCSC)C(=O)N[C@@H](C)C(=O)N[C@@H](CCCNC(=N)N)C(=O)N[C@@H](C)C(=O)N[C@@H](CCC(=O)O)C(=O)N[C@@H](CCC(N)=O)C(=O)N[C@@H](CC(C)C)C(=O)N[C@@H](C)C(=O)N[C@@H](CCC(N)=O)C(=O)N[C@@H](CCC(N)=O)C(=O)N[C@@H](C)C(=O)N[C@@H](Cc1c[nH]cn1)C(=O)N[C@@H](CO)C(=O)N[C@@H](CC(N)=O)C(=O)N[C@@H](CCCNC(=N)N)C(=O)N[C@@H](CCCCN)C(=O)N[C@@H](CC(C)C)C(=O)N[C@@H](CCSC)C(=O)N[C@@H](CCC(=O)O)C(=O)N[C@H](C(=O)N[C@H](C(N)=O)[C@@H](C)CC)[C@@H](C)CC)C(C)C)[C@@H](C)CC)C(C)C)C(C)C [compound 165] (H-IVLSLDVPIGLLQEVLEMARAEQLAQQAHSNRKLMEII-NH2) |  |  | > 100 | > 100 |

— patent publication US7632933B2, “Corticotropin releasing factor 2 receptor agonists” (priority 2002, dated 2009)
